Measured values as given in US8309558B2, “Compounds for the treatment of hepatitis C” (Bristol-Myers Squibb Company, priority 2008, dated 2012).
pEC50, pIC50: −log10 of the molar value. Where two headings read alike, the source gives them in different places.

Experiments:
[1] = biological target: T1, HCV NS5B RdRp genotype 1b (Hepatitis C virus genotype 1b, UniProt Q9WMX2); assay: Standard HCV NS5B RdRp enzyme assay; assay type: biochemical; conditions: HCV NS5B RdRp genotype 1b, read-out: IC50
T1 construct: The protein was expressed with an 18 amino acid C-terminal truncation to enhance the solubility; made in house; host or cells: E. coli BL21(DE3), pET21a vector
In short: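 Radiometric SPA measuring 3H-UMP incorporation on polyA/biotin-oligo-dT12 (6 nM/180 nM), 0.29 μM total UTP. Enzyme: NS5B 1b lacking last 18 residues, 28 nM final, 30° C for 60 min in 20 mM Hepes pH 7.5, 2.5 mM MgCl2, 2% DMSO. IC50 from seven-point curves.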

[2] = tested on: HCV replicon cells; assay: HCV replicon FRET / luciferase assay (96-well plates); assay type: cell-based; conditions: Hepatitis C virus, HCV replicon, read-out: EC50
In short: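 HCV replicon cells (with or without Renilla luciferase reporter) were plated with titrated compounds at 37 °C. After Alamar blue toxicity reading, cells were lysed in reagent containing 20 μM EDANS/DABCYL NS3 protease FRET peptide and 150 mM NaCl, read kinetically at 340/490 nm, or assayed by Dual-Glo luciferase.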

T1 sequence (Q9WMX2 2420-2992): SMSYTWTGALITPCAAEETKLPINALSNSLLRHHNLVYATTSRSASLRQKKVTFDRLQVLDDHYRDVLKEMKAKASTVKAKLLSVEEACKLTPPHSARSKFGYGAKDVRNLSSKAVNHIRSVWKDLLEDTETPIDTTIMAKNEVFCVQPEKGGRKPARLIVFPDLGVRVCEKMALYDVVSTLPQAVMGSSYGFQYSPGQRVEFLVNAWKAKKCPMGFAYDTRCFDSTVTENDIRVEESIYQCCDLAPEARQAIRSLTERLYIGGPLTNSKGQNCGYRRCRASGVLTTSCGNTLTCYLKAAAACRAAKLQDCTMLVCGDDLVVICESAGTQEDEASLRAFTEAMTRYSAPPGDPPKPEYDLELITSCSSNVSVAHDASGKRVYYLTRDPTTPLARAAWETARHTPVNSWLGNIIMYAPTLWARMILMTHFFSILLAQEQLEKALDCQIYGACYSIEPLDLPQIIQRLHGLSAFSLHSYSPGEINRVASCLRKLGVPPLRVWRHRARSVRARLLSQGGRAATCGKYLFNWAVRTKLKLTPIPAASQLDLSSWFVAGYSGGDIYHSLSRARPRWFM

SMILES: CNC(=O)c1c(-c2ccc(F)cc2)oc2ccc(-c3cc(NC(=O)OC(C)(C)C)cc(C(=O)NCC(C)C)c3)cc12
- pIC50 ([1]; Table 1b): 6.00 to 6.60
- pEC50 ([2]; Table 1b): > 6.60

SMILES: CNC(=O)c1c(-c2ccc(F)cc2)oc2cc([N+](=O)[O-])c(-c3cccc(C(=O)NCC(C)C)c3)cc12
- pIC50 ([1]; Table 1b): > 6.60
- pEC50 ([2]; Table 1b): > 6.60

SMILES: CNC(=O)c1c(-c2ccc(F)cc2)oc2ccc(-c3cc(C(=O)NCC(C)C)ccc3OC3CCCC3)cc12
- pIC50 ([1]; Table 1b): < 5.00
- pEC50 ([2]; Table 1b): 5.00 to 6.00

SMILES: CNC(=O)c1c(-c2ccc(F)cc2)oc2ccc(-c3ccc(-c4ccccc4Cl)c(C(=O)NCC(C)C)c3)cc12
- pIC50 ([1]; Table 1b): > 6.60
- pEC50 ([2]; Table 1b): > 6.60

SMILES: CNC(=O)c1c(-c2ccc(F)cc2)oc2ccc(-c3ccc(-c4ccccc4C(N)=O)c(C(=O)NCC(C)C)c3)cc12
- pIC50 ([1]; Table 1b): > 6.60
- pEC50 ([2]; Table 1b): > 6.60

SMILES: CNC(=O)c1c(-c2ccc(F)cc2)oc2ccc(-c3ccc(-c4ccccc4NC(C)=O)c(C(=O)NCC(C)C)c3)cc12
- pIC50 ([1]; Table 1b): 6.00 to 6.60
- pEC50 ([2]; Table 1b): 5.00 to 6.00

SMILES: CNC(=O)c1c(-c2ccc(F)cc2)oc2ccc(-c3ccc(-c4ccccc4COC)c(C(=O)NCC(C)C)c3)cc12
- pIC50 ([1]; Table 1b): 6.00 to 6.60
- pEC50 ([2]; Table 1b): > 6.60

SMILES: CNC(=O)c1c(-c2ccc(F)cc2)oc2ccc(-c3ccc(-c4cccc(CC#N)c4)c(C(=O)NCC(C)C)c3)cc12
- pIC50 ([1]; Table 1b): > 6.60
- pEC50 ([2]; Table 1b): > 6.60

SMILES: CCNC(=O)c1cccc(-c2ccc(-c3ccc4oc(-c5ccc(F)cc5)c(C(=O)NC)c4c3)cc2C(=O)NCC(C)C)c1
- pIC50 ([1]; Table 1b): > 6.60
- pEC50 ([2]; Table 1b): > 6.60

SMILES: CNC(=O)c1c(-c2ccc(F)cc2)oc2ccc(-c3ccc(-c4cccc(-c5ccccc5)c4)c(C(=O)NCC(C)C)c3)cc12
- pIC50 ([1]; Table 1b): < 5.00
- pEC50 ([2]; Table 1b): 6.00 to 6.60

SMILES: CNC(=O)c1c(-c2ccc(F)cc2)oc2ccc(-c3cccc(-c4nc(C(C)C)no4)c3)cc12
- pIC50 ([1]; Table 1b): < 5.86
- pEC50 ([2]; Table 1b): 6.00 to 6.60

SMILES: CNC(=O)c1c(-c2ccc(F)cc2)oc2ccc(-c3cccc(-c4nc(-c5ccccc5)no4)c3)cc12
- pIC50 ([1]; Table 1b): < 5.00
- pEC50 ([2]; Table 1b): > 6.60

SMILES: CNC(=O)c1c(-c2ccc(F)cc2)oc2ccc(-c3ccc(F)c(C(=O)NC(C)(C)C)c3)cc12
- pIC50 ([1]; Table 1b): > 6.60
- pEC50 ([2]; Table 1b): > 6.60

SMILES: CNC(=O)c1c(-c2ccc(F)cc2)oc2cc(NS(C)(=O)=O)c(-c3cc(C(=O)NCC(C)C)ccc3OC)cc12
- pIC50 ([1]; Table 1b): > 6.60
- pEC50 ([2]; Table 1b): > 6.60

SMILES: CNC(=O)c1c(-c2ccc(F)cc2)oc2ccc(-c3cccc(-c4nc(-c5ccccc5)c[nH]4)c3)cc12
- pIC50 ([1]; Table 1b): 6.00 to 6.60
- pEC50 ([2]; Table 1b): > 6.60

SMILES: CNC(=O)c1c(-c2ccc(F)cc2)oc2ccc(-c3cccc(C(=O)NC(C)(C)C(=O)Nc4nncs4)c3)cc12
- pIC50 ([1]; Table 1b): > 6.60
- pEC50 ([2]; Table 1b): > 6.60

SMILES: CNC(=O)c1c(-c2ccc(F)cc2)oc2ccc(-c3cccc(-c4ccn[nH]4)c3)cc12
- pIC50 ([1]; Table 1b): 5.00 to 6.00
- pEC50 ([2]; Table 1b): 5.00 to 6.00

SMILES: CNC(=O)c1c(-c2ccc(F)cc2)oc2ccc(-c3cccc(-c4ccnn4Cc4ccccc4)c3)cc12
- pIC50 ([1]; Table 1b): > 6.60
- pEC50 ([2]; Table 1b): > 6.60

SMILES: CNC(=O)c1c(-c2ccc(F)cc2)oc2ccc(-c3c(C)ccc(C(=O)O)c3OC)cc12
- pIC50 ([1]; Table 1b): 5.00 to 6.00
- pEC50 ([2]; Table 1b): < 5.00

SMILES: CNC(=O)c1c(-c2ccc(F)cc2)oc2ccc(-c3cccc(C(=O)NC(C)(C)C(=O)Nc4cc(C)[nH]n4)c3)cc12
- pIC50 ([1]; Table 1b): > 6.60
- pEC50 ([2]; Table 1b): > 6.60

SMILES: CNC(=O)c1c(-c2ccc(F)cc2)oc2ccc(-c3cccc(C(=O)NC(C)(C)C(=O)Nc4cc(C)no4)c3)cc12
- pIC50 ([1]; Table 1b): > 6.60
- pEC50 ([2]; Table 1b): > 6.60

SMILES: CNC(=O)c1c(-c2ccc(F)cc2)oc2ccc(-c3cccc(C(=O)NC(C)(C)C(=O)Nc4cc(C)on4)c3)cc12
- pIC50 ([1]; Table 1b): > 6.60
- pEC50 ([2]; Table 1b): > 6.60

SMILES: CNC(=O)c1c(-c2ccc(F)cc2)oc2ccc(-c3cccc(C(=O)NC(C)(C)C(=O)Nc4nccnn4)c3)cc12
- pIC50 ([1]; Table 1b): > 6.60
- pEC50 ([2]; Table 1b): > 6.60

SMILES: CCC(NC(=O)c1ccc(F)c(-c2cc3c(C(=O)NC)c(-c4ccc(F)cc4)oc3cc2N)c1)c1ccccc1 (stereo not shown)
- pIC50 ([1]; Table 1b): > 6.60
- pEC50 ([2]; Table 1b): > 6.60

SMILES: CNC(=O)c1c(-c2ccc(F)cc2)oc2ccc(-c3cc(C(=O)NC4(c5nnc(C(N)=O)[nH]5)CC4)ccc3C)cc12
- pIC50 ([1]; Table 1b): > 6.60
- pEC50 ([2]; Table 1b): 6.00 to 6.60

SMILES: CNC(=O)c1c(-c2ccc(F)cc2)oc2ccc(-c3cc(C(=O)NC4(c5nnc(-c6ccc(OC)cc6)[nH]5)CC4)ccc3C)cc12
- pIC50 ([1]; Table 1b): > 6.60
- pEC50 ([2]; Table 1b): > 6.60

SMILES: CNC(=O)c1c(-c2ccc(F)cc2)oc2ccc(-c3cc(C(=O)NC4(c5nnc(C(C)C)[nH]5)CC4)ccc3C)cc12
- pIC50 ([1]; Table 1b): > 6.60
- pEC50 ([2]; Table 1b): > 6.60

SMILES: CNC(=O)c1c(-c2ccc(F)cc2)oc2ccc(-c3cc(C(=O)NC4(c5nnc(-c6ccccn6)[nH]5)CC4)ccc3C)cc12
- pIC50 ([1]; Table 1b): > 6.60
- pEC50 ([2]; Table 1b): > 6.60

SMILES: CNC(=O)c1c(-c2ccc(F)cc2)oc2ccc(-c3cc(C(=O)NC4(c5nnc(C(F)(F)F)[nH]5)CC4)ccc3C)cc12
- pIC50 ([1]; Table 1b): > 6.60
- pEC50 ([2]; Table 1b): > 6.60

SMILES: CNC(=O)c1c(-c2ccc(F)cc2)oc2ccc(-c3cc(C(=O)NC4(c5coc(C)n5)CC4)ccc3C)cc12
- pIC50 ([1]; Table 1b): > 6.60
- pEC50 ([2]; Table 1b): > 6.60

SMILES: CNC(=O)c1c(-c2ccc(F)cc2)oc2ccc(-c3cc(C(=O)NC4(c5ccccn5)CC4)ccc3OCCN)cc12
- pIC50 ([1]; Table 1b): > 7.70
- pEC50 ([2]; Table 1b): > 6.60

SMILES: CNC(=O)c1c(-c2ccc(F)cc2)oc2ccc(-c3cc(C(=O)NC4(c5ccccn5)CC4)c(OC(C)C)cc3C)cc12
- pIC50 ([1]; Table 1b): > 6.60
- pEC50 ([2]; Table 1b): > 6.60

SMILES: CNC(=O)c1c(-c2ccc(F)cc2)oc2ccc(-c3ccc(-c4ccccc4C(N)=O)c(C(=O)NC4(c5ccccn5)CC4)c3)cc12
- pIC50 ([1]; Table 1b): > 6.60
- pEC50 ([2]; Table 1b): > 6.60

SMILES: CNC(=O)c1c(-c2ccc(F)cc2)oc2ccc(-c3cc(C(=O)NC4(c5ccccn5)CC4)ccc3OCCO)cc12
- pIC50 ([1]; Table 1b): > 6.60
- pEC50 ([2]; Table 1b): > 6.60

SMILES: CNC(=O)c1c(-c2ccc(F)cc2)oc2ccc(-c3cc(C(=O)NC4(c5ccccn5)CC4)cc(O)c3C)cc12
- pIC50 ([1]; Table 1b): > 6.60
- pEC50 ([2]; Table 1b): > 6.60

SMILES: CNC(=O)c1c(-c2ccc(F)cc2)oc2ccc(-c3c(C)ccc(C(=O)NC4(c5ccccn5)CC4)c3F)cc12
- pIC50 ([1]; Table 1b): > 7.70
- pEC50 ([2]; Table 1b): > 6.60

SMILES: CNC(=O)c1c(-c2ccc(F)cc2)oc2ccc(-c3cc(C(=O)NC(C)(C)C)c(OC)cc3C)c(F)c12
- pIC50 ([1]; Table 1b): > 6.60
- pEC50 ([2]; Table 1b): > 6.60

SMILES: CCC(NC(=O)c1cc(-c2ccc3oc(-c4ccc(F)cc4)c(C(=O)NC)c3c2F)c(C)cc1OC)c1ncccn1 (stereo not shown)
- pIC50 ([1]; Table 1b): > 6.60
- pEC50 ([2]; Table 1b): > 6.60

SMILES: CNC(=O)c1c(-c2ccc(F)cc2)oc2ccc(-c3cc(C(=O)NC4(c5ncccn5)CC4)c(OC)cc3C)c(F)c12
- pIC50 ([1]; Table 1b): > 6.60
- pEC50 ([2]; Table 1b): > 6.60

SMILES: CNC(=O)c1c(-c2ccc(F)cc2)oc2ccc(-c3cc(C(=O)NC4(c5ncccn5)CC4)c(OC)cc3C)cc12
- pIC50 ([1]; Table 1b): > 6.60
- pEC50 ([2]; Table 1b): > 6.60

SMILES: CNC(=O)c1c(-c2ccc(F)cc2)oc2ccc(-c3cc(C(=O)NC4(c5ccn(C)n5)CC4)ccc3C)cc12
- pIC50 ([1]; Table 1b): > 7.70
- pEC50 ([2]; Table 1b): > 6.60

SMILES: CNC(=O)c1c(-c2ccc(F)cc2)oc2ccc(-c3cc(C(=O)NC4(c5coc(C)n5)CC4)c(OC)cc3C)cc12
- pIC50 ([1]; Table 1b): > 6.60
- pEC50 ([2]; Table 1b): > 6.60

SMILES: CNC(=O)c1c(-c2ccc(F)cc2)oc2ccc(-c3cc(C(=O)NC4(c5ccn(C)n5)CC4)c(OC)cc3C)cc12
- pIC50 ([1]; Table 1b): > 6.60
- pEC50 ([2]; Table 1b): > 6.60

SMILES: CNC(=O)c1c(-c2ccc(F)cc2)oc2ccc(-c3cc(C(=O)NC4(c5cc(C)on5)CC4)c(OC)cc3C)cc12
- pIC50 ([1]; Table 1b): > 6.60
- pEC50 ([2]; Table 1b): > 6.60

SMILES: CNC(=O)c1c(-c2ccc(F)cc2)oc2ccc(-c3cc(C(=O)NC4(c5ccccn5)CC4)c(-c4ccccc4Cl)cc3C)cc12
- pIC50 ([1]; Table 1b): > 6.60
- pEC50 ([2]; Table 1b): > 6.60

SMILES: CNC(=O)c1c(-c2ccc(F)cc2)oc2ccc(-c3cc(C(=O)O)c(C)cc3C)c(F)c12
- pIC50 ([1]; Table 1b): 5.00 to 6.00
- pEC50 ([2]; Table 1b): < 5.00

SMILES: CNC(=O)c1c(-c2ccc(F)cc2)oc2ccc(-c3cc(C(=O)NC4(c5ccccn5)CC4)c(OC)cc3OCC(N)=O)cc12
- pIC50 ([1]; Table 1b): > 7.70
- pEC50 ([2]; Table 1b): > 6.60

SMILES: CNC(=O)c1c(-c2ccc(F)cc2)oc2ccc(-c3cc(C(=O)NC4(c5ncccn5)CC4)c(C)cc3C)c(F)c12
- pIC50 ([1]; Table 1b): 6.00 to 6.60
- pEC50 ([2]; Table 1b): > 6.60

SMILES: CNC(=O)c1c(-c2ccc(F)cc2)oc2ccc(-c3cc(C(=O)NC4(c5ncccn5)CC4)c(C)cc3C)cc12
- pIC50 ([1]; Table 1b): > 6.60
- pEC50 ([2]; Table 1b): > 6.60

SMILES: CNC(=O)c1c(-c2ccc(F)cc2)oc2ccc(-c3cc(C(=O)NC4(c5ncc(C)o5)CC4)ccc3C)cc12
- pIC50 ([1]; Table 1d (class symbols)): > 7.70
- pEC50 ([2]; 24 h, Table 1d (class symbols)): 6.60 to 9.00
